Laboratory results reported in US8742110B2, “Spiroxazolidinone compounds” (Merck Sharp & Dohme Corp., priority 2010, dated 2014).
Counter-ions that a name gives are not always drawn.

Target: SSTR5 (Homo sapiens (Human), UniProt P35346)
Experiment: SSTR5 binding assay
Details: CHO-K1 membranes expressing cloned human SSTR5
In short: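 Competition binding on membranes from CHO-K1 cells stably expressing cloned human receptor, using radiolabeled somatostatin in 50 mM Tris-HCl pH 7.8 with EGTA, MgCl2 and protease inhibitors. Unlabeled compounds tested from 0.01 nM to 10,000 nM.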

Sequence of SSTR5 (P35346 whole entry): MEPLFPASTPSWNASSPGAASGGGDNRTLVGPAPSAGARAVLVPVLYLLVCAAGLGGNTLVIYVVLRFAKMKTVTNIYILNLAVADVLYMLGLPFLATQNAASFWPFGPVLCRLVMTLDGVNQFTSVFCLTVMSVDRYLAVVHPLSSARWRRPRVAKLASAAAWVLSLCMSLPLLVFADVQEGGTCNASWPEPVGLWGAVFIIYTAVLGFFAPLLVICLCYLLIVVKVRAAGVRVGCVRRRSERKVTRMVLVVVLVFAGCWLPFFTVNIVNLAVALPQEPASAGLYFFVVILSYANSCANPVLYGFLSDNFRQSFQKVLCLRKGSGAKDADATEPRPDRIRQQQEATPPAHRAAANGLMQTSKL

SMILES	IC50 [nM]
CC(C)(C)Cn1nc(CN2CCC3(CC2)CN(c2ccc(C(=O)O)cc2)C(=O)O3)c2cc(F)ccc21 [Example 6-10, 4-(8-{[1-(2,2-Dimethylpropyl)-5-fluoro-1H-indazol-3-yl]methyl}-2-oxo-1-oxa-3,8-diazaspiro[4.5]dec-3-yl)benzoic acid, TFA salt]	137
COc1ccc2c(CN3CCC4(CC3)CN(c3ccc(C(=O)O)cc3)C(=O)O4)nn(CC(C)(C)C)c2c1 [Example 6-11, 4-(8-{[1-(2,2-Dimethylpropyl)-6-methoxy-1H-indazol-3-yl]methyl}-2-oxo-1-oxa-3,8-diazaspiro[4.5]dec-3-yl)benzoic acid, TFA salt]	410
COc1ccc2c(CN3CCC4(CC3)CN(c3ccc(C(=O)O)cc3)C(=O)O4)nn(C3CC3)c2c1 [Example 6-12, 4-{8-[(1-Cyclopropyl-6-methoxy-1H-indazol-3-yl)methyl]-2-oxo-1-oxa-3,8-diazaspiro[4.5]dec-3-yl}benzoic acid, TFA salt]	216
COc1ccc2c(CN3CCC4(CC3)CN(c3ccc(C(=O)O)cc3)C(=O)O4)nn(-c3ccccc3)c2c1 [Example 6-13, 4-{8-[(6-Methoxy-1-phenyl-1H-indazol-3-yl)methyl]-2-oxo-1-oxa-3,8-diazaspiro[4.5]dec-3-yl}benzoic acid, TFA salt]	185
CC(C)n1nc(CN2CCC3(CC2)CN(c2ccc(C(=O)O)cc2)C(=O)O3)c2cc(OCc3ccccc3)ccc21 [Example 6-14, 4-(8-{[5-(Benzyloxy)-1-(propan-2-yl)-1H-indazol-3-yl]methyl}-2-oxo-1-oxa-3,8-diazaspiro[4.5]dec-3-yl)benzoic acid, TFA salt]	0.26
COc1ccc2c(CN3CCC4(CC3)CN(c3ccc(C(=O)O)cc3)C(=O)O4)nn(CC(=O)C(C)(C)C)c2c1 [Example 6-15, 4-(8-{[1-(3,3-Dimethyl-2-oxobutyl)-6-methoxy-1H-indazol-3-yl]methyl}-2-oxo-1-oxa-3,8-diazaspiro[4.5]dec-3-yl)benzoic acid, TFA salt]	1200
COc1ccc2c(CN3CCC4(CC3)CN(c3ccc(C(=O)O)cc3)C(=O)O4)cn(C(C)C)c2c1 [Example 6-16, 4-(8-{[6-Methoxy-1-(propan-2-yl)-1H-indol-3-yl]methyl}-2-oxo-1-oxa-3,8-diazaspiro[4.5]dec-3-yl)benzoic acid, TFA salt]	0.851
CC(C)(C)n1nc(CN2CCC3(CC2)CN(c2ccc(C(=O)O)cc2)C(=O)O3)c2cc(Cl)c(F)cc21 [Example 6-17, 4-{8-[(1-tert-Butyl-5-chloro-6-fluoro-1H-indazol-3-yl)methyl]-2-oxo-1-oxa-3,8-diazaspiro[4.5]dec-3-yl}benzoic acid, TFA salt]	61.6
CC(C)n1cc(CN2CCC3(CC2)CN(c2ccc(C(=O)O)cc2)C(=O)O3)c2c(OCc3ccccc3)cccc21 [Example 6-18, 4-(8-{[4-(Benzyloxy)-1-(propan-2-yl)-1H-indol-3-yl]methyl}-2-oxo-1-oxa-3,8-diazaspiro[4.5]dec-3-yl)benzoic acid, TFA salt]	0.225
COc1ccc2c(CN3CCC4(CC3)CN(c3ccc(C(=O)O)cc3)C(=O)O4)cn(C)c2c1 [Example 6-19, 4-{8-[(6-Methoxy-1-methyl-1H-indol-3-yl)methyl]-2-oxo-1-oxa-3,8-diazaspiro[4.5]dec-3-yl}benzoic acid, TFA salt]	6.79
CCCn1cc(CN2CCC3(CC2)CN(c2ccc(C(=O)O)cc2)C(=O)O3)c2ccc(OC)cc21 [Example 6-20, 4-{8-[(6-Methoxy-1-propyl-1H-indol-3-yl)methyl]-2-oxo-1-oxa-3,8-diazaspiro[4.5]dec-3-yl}benzoic acid, TFA salt]	1.06
CCCCn1cc(CN2CCC3(CC2)CN(c2ccc(C(=O)O)cc2)C(=O)O3)c2ccc(OC)cc21 [Example 6-21, 4-{8-[(6-Methoxy-1-butyl-1H-indol-3-yl)methyl]-2-oxo-1-oxa-3,8-diazaspiro[4.5]dec-3-yl}benzoic acid, TFA salt]	11.7

The next lines start with the values.

IC50 [nM]	SMILES
8.64	COc1ccc2c(CN3CCC4(CC3)CN(c3ccc(C(=O)O)cc3)C(=O)O4)c[nH]c2c1 [Example 6-22, 4-{8-[(6-Methoxy-1H-indol-3-yl)methyl]-2-oxo-1-oxa-3,8-diazaspiro[4.5]dec-3-yl}benzoic acid, TFA salt]
9.06	COc1ccc2c(CN3CCC4(CC3)CN(c3ccc(C(=O)O)cc3)C(=O)O4)cn(-c3ccccc3)c2c1 [Example 6-23, 4-{8-[(6-Methoxy-1-phenyl-1H-indol-3-yl)methyl]-2-oxo-1-oxa-3,8-diazaspiro[4.5]dec-3-yl}benzoic acid, TFA salt]
0.342	CC(C)n1cc(CN2CCC3(CC2)CN(c2ccc(C(=O)O)cc2)C(=O)O3)c2cc(-c3ccc(F)c(F)c3F)ccc21 [Example 6-24, TFA salt]
0.55	CC(C)n1cc(CN2CCC3(CC2)CN(c2ccc(C(=O)O)cc2)C(=O)O3)c2cc(Br)ccc21 [Example 6-25, 4-(8-{[5-Bromo-1-(propan-2-yl)-1H-indol-3-yl]methyl}-2-oxo-1-oxa-3,8-diazaspiro[4.5]dec-3-yl)benzoic acid, TFA salt]
1.45	COc1ccc2c(c1)c(CN1CCC3(CC1)CN(c1ccc(C(=O)O)cc1)C(=O)O3)cn2C(C)C [Example 6-26, 4-(8-{[5-Methoxy-1-(propan-2-yl)-1H-indol-3-yl]methyl}-2-oxo-1-oxa-3,8-diazaspiro[4.5]dec-3-yl)benzoic acid, TFA salt]
119	O=C(O)c1ccc(N2CC3(CCN(Cc4nc(-c5ccccc5)oc4-c4ccc(F)c(Cl)c4)CC3)OC2=O)cc1 [Example 6-27, 4-(8-{[5-(3-Chloro-4-fluorophenyl)-2-phenyl-1,3-oxazol-4-yl]methyl}-2-oxo-1-oxa-3,8-diazaspiro[4.5]dec-3-yl)benzoic acid, TFA salt]
1.34	COc1ccc(-c2nc(C3CCCCC3)sc2CN2CCC3(CC2)CN(c2ccc(C(=O)O)cc2)C(=O)O3)cc1 [Example 6-28, 4-(8-{[2-Cyclohexyl-4-(4-methoxyphenyl)-1,3-thiazol-5-yl]methyl}-2-oxo-1-oxa-3,8-diazaspiro[4.5]dec-3-yl)benzoic acid, TFA salt]
0.705	COc1ccc(-c2nc(C(C)(C)C)sc2CN2CCC3(CC2)CN(c2ccc(C(=O)O)cc2)C(=O)O3)cc1 [Example 6-29, 4-(8-{[2-tert-Butyl-4-(4-methoxyphenyl)-1,3-thiazol-5-yl]methyl}-2-oxo-1-oxa-3,8-diazaspiro[4.5]dec-3-yl)benzoic acid, TFA salt]
89.9	O=C(O)c1ccc(N2CC3(CCN(Cc4nc(-c5ccccc5)oc4-c4cc(F)c(F)cc4F)CC3)OC2=O)cc1 [Example 6-30, 4-(2-Oxo-8-{[2-phenyl-5-(2,4,5-trifluorophenyl)-1,3-oxazol-4-yl]methyl}-1-oxa-3,8-diazaspiro[4.5]dec-3-yl)benzoic acid, TFA salt]
414	O=C(O)c1ccc(N2CC3(CCN(Cc4nc(C5CC5)oc4-c4ccc(F)c(Cl)c4)CC3)OC2=O)cc1 [Example 6-31, 4-(8-{[5-(3-Chloro-4-fluorophenyl)-2-cyclopropyl-1,3-oxazol-4-yl]methyl}-2-oxo-1-oxa-3,8-diazaspiro[4.5]dec-3-yl)benzoic acid, TFA salt]
69.1	O=C(O)c1ccc(N2CC3(CCN(Cc4sc(-c5ccccc5)nc4-c4ccccc4)CC3)OC2=O)cc1 [Example 6-32, 4-{8-[(2,4-Diphenyl-1,3-thiazol-5-yl)methyl]-2-oxo-1-oxa-3,8-diazaspiro[4.5]dec-3-yl}benzoic acid, TFA salt]
